The target in this assay is T1, TLR7/NFKb HEK cells (Homo sapiens, UniProt Q9NYK1).
T1 construct: expressed in transfected cells; host or cells: HEK cells (TLR7/NFKb reporter line)
T1 sequence (Q9NYK1 27-1049): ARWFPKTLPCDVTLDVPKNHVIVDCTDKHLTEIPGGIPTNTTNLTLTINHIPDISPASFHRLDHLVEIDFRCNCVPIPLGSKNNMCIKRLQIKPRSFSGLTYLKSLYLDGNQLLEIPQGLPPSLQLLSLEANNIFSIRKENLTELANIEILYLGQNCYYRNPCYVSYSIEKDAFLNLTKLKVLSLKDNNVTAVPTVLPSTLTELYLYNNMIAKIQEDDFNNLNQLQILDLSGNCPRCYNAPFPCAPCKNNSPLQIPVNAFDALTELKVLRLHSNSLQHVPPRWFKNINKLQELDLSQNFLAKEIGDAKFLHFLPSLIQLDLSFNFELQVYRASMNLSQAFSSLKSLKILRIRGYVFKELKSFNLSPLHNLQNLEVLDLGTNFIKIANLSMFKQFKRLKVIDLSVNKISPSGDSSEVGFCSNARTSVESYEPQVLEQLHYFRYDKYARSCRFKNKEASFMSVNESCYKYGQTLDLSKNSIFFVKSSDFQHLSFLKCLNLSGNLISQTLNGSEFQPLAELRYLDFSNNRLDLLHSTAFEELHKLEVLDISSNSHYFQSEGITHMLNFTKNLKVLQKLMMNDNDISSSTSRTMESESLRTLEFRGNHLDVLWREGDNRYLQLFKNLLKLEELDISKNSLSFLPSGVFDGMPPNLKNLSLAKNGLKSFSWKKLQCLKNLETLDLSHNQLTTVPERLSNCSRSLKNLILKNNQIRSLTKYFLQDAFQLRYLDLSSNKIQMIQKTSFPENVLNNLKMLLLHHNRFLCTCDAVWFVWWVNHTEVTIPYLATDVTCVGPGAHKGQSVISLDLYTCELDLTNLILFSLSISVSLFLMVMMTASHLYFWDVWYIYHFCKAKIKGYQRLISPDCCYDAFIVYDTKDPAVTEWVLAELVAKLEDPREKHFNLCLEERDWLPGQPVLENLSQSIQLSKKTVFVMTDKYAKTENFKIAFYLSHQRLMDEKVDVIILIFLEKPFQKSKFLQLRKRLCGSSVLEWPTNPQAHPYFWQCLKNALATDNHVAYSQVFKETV
The experiment in a line: HEK Cell Assay (TLR7/NFKb reporter, Steady-Glo luciferase readout). It counts as cell-based. Conditions: 30 min compound preincubation, then R*48 agonist for 5 hours, read-out: Potency. Summed up: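 Steady-Glo luminescence after 5 h stimulation with R*48 agonist, following 30 min compound preincubation. Assay run in HEK cells carrying a TLR7/NFKb luciferase reporter, plated at 5000 cells/well and grown 24 h at 37° C (10% CO2) before treatment.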

For 30 compounds, IC50 results are on record in US10947213B1 (Merck Patent GmbH, priority 2015, dated 2021).

Counter-ions that a name gives are not always drawn. Bounds are passed on as bounds.

With `C[C@H]1C[C@@H](NC(=O)C2(N)COC2)CN(c2ccnc3nccnc23)C1` [Compound 128, 3-amino-N-[(3R,5S)-5-methyl-1-[pyrido[2,3-b]pyrazin-8-yl]piperidin-3-yl]oxetane-3-carboxamide], the IC50 is greater than 10000 nM.

Regarding `C[C@H]1C[C@@H](NC(=O)CN2CC(N)C2)CN(c2ccc(C(F)(F)F)c3ncccc23)C1` [Compound 280, 2-(3-aminoazetidin-1-yl)-N-[(3R,5S)-5-methyl-1-[8-(trifluoromethyl)quinolin-5-yl]piperidin-3-yl]acetamide], the IC50 was less than 1000 nM.

With `COCCN[C@@H]1C[C@H](C)CN(c2c(F)cc(C#N)c3nccnc23)C1` [Compound 344, 7-fluoro-8-[(3R,5S)-3-[(2-methoxyethyl)amino]-5-methylpiperidin-1-yl]quinoxaline-5-carbonitrile], the IC50 lay within 1000 to 10000 nM.

Consider `O=C(CN1CCCCC1)NCC1CCN(c2ccnc3nccnc23)CC1` [Compound 388, 2-Piperidin-1-yl-N-(1-pyrido[2,3-b]pyrazin-8-yl-piperidin-4-ylmethyl)-acetamide], for which the IC50 lay within 1000 to 10000 nM.

As for `N[C@H]1C[C@@H](C2CC2)CN(c2ccc(F)c3nccnc23)C1` (relative stereo) [Compound 366, cis-5-cyclopropyl-1-(8-fluoroquinoxalin-5-yl)piperidin-3-amine], the IC50 is 1000 to 10000 nM.

Regarding `CN1CCC(NC2CC(C(F)(F)F)CN(c3ccc(C#N)c4nccnc34)C2)C1=O` (single isomer, unassigned) [Compound 226], the IC50 is less than 1000 nM.

In the case of `CCN(CC)CCNC(=O)C1CCN(c2ccc(C#N)c3ncncc23)CC1` [Compound 397, 1-(8-Cyano-quinazolin-5-yl)-piperidine-4-carboxylic acid (2-diethylamino-ethyl)-amide], the IC50 fell in the range of 1000 to 10000 nM.

For `CN1CCCC1CNC(=O)C1CCN(c2ccc(C#N)c3ncccc23)CC1` (stereo not drawn) [Compound 433, 1-(8-Cyano-quinolin-5-yl)-piperidine-4-carboxylic Acid (1-methyl-pyrrolidin-2-ylmethyl)-amide], the IC50 was less than 1000 nM.

For `C[C@H]1C[C@@H](NC(=O)CC2CCN(C)C2)CN(c2ccc(C(F)F)c3ncccc23)C1` (stereo partly drawn) [Compound 307, N-[(3R,5S)-1-[8-(difluoromethyl)quinolin-5-yl]-5-methylpiperidin-3-yl]-2-(1-methylpyrrolidin-3-yl)acetamide], the IC50 was less than 1000 nM.

With `CN1CCN(CC(=O)N[C@H]2C[C@@H](C3CC3)CN(c3ccc(C(F)(F)F)c4ncccc34)C2)CC1` (racemic) [Compound 338, cis-N-[5-cyclopropyl-1-[8-(trifluoromethyl)quinolin-5-yl]piperidin-3-yl]-2-(4-methylpiperazin-1-yl)acetamide], the IC50 is less than 1000 nM.

In the case of `C[C@H]1C[C@@H](N)CN(c2ccc(C(N)=O)c3ncccc23)C1` [Compound 180, 5-[(3R,5S)-3-amino-5-methylpiperidin-1-yl]quinoline-8-carboxamide], the IC50 was less than 1000 nM.

In the case of `C[C@H]1C[C@@H](NC(=O)C(N)C2CC2)CN(c2ccc(C(F)F)c3ncccc23)C1` (stereo partly drawn) [Compound 306, 2-amino-2-cyclopropyl-N-[(3R,5S)-1-[8-(difluoromethyl)quinolin-5-yl]-5-methylpiperidin-3-yl]acetamide], the IC50 was less than 1000 nM.

As to `N#Cc1ccc(N2CC(N)CC(C(F)(F)F)C2)c2cccnc12` (single isomer, unassigned) [Compound 72], the IC50 was less than 1000 nM.

On to `C[C@H]1C[C@@H](NC(=O)CC(C)(C)C)CN(c2ccc(C(F)(F)F)c3ncccc23)C1` [Compound 195, 3,3-dimethyl-N-[(3R,5S)-5-methyl-1-[8-(trifluoromethyl)quinolin-5-yl]piperidin-3-yl]butanamide], for which the IC50 is less than 1000 nM.

Take `Cc1ncc(N2C[C@@H](C)C[C@@H](NC(=O)CC3CCN(C)CC3)C2)c2cccnc12` [Compound 554, N-[(3R,5S)-5-Methyl-1-(8-methyl-[1,7]naphthyridin-5-yl)-piperidin-3-yl]-2-(1-methyl-piperidin-4-yl)-acetamide]: the IC50 was less than 1000 nM.

Regarding `C[C@H]1C[C@@H](NC(=O)CC(C)(C)N)CN(c2ccc(C(F)(F)F)c3ncccc23)C1` [Compound 514, 3-Amino-3-methyl-N-[(3R,5S)-5-methyl-1-(8-trifluoromethyl-quinolin-5-yl)-piperidin-3-yl]-butyramide], the IC50 was less than 1000 nM.

As for `C[C@@H]1CN(c2ccc(C#N)c3nccnc23)C[C@H](CN2CCC(N3CCCC3)CC2)O1` [Compound 57, 8-((2R,6S)-2-methyl-6-((4-(pyrrolidin-1-yl)piperidin-1-yl)methyl)morpholino)quinoxaline-5-carbonitrile], the IC50 was less than 1000 nM.

Regarding `CN1CCN(CC(=O)NC2CN(c3ccc(C(F)(F)F)c4ncccc34)CC(F)(F)C2)CC1` (stereo not drawn) [Compound 511, N-[5,5-Difluoro-1-(8-trifluoromethyl-quinolin-5-yl)-piperidin-3-yl]-2-(4-methyl-piperazin-1-yl)-acetamide], the IC50 is less than 1000 nM.

For the compound `C[C@H]1C[C@@H](NC(=O)CC2CCN(CC(F)F)CC2)CN(c2ccc(C#N)c3nccnc23)C1` [Compound 234, N-[(3R,5S)-1-(8-cyanoquinoxalin-5-yl)-5-methylpiperidin-3-yl]-2-[1-(2,2-difluoroethyl)piperidin-4-yl]acetamide], the IC50 is less than 1000 nM.

As to `N#Cc1ccc(N2CC(NC(=O)C(N)C3CC3)CC(C(F)(F)F)C2)c2cccnc12` (single isomer, unassigned) [Compound 487], the IC50 was less than 1000 nM.

As for `C[C@H]1C[C@@H](NC(=O)CC2CCCN(C)C2)CN(c2ccc(C(F)(F)F)c3nccnc23)C1` (stereo partly drawn) [Compound 293, N-[(3R,5S)-5-methyl-1-[8-(trifluoromethyl)quinoxalin-5-yl]piperidin-3-yl]-2-(1-methylpiperidin-3-yl)acetamide], the IC50 was less than 1000 nM.

With `CC1CC(CN2CCN(C)CC2)CN(c2ccc(C(F)(F)F)c3ncccc23)C1` (single isomer, unassigned) [Compound 534, trans-5-[3-Methyl-5-(4-methyl-piperazin-1-ylmethyl)-piperidin-1-yl]-8-trifluoromethyl-quinoline], the IC50 fell in the range of 1000 to 10000 nM.

For the compound `CC(C)[C@H](O)C(=O)N[C@@H]1C[C@H](C(F)(F)F)CN(c2ccnc3nccnc23)C1` [Compound 89, (2S)-2-hydroxy-3-methyl-N-[(3R,5S)-1-[pyrido[2,3-b]pyrazin-8-yl]-5-(trifluoromethyl)piperidin-3-yl]butanamide hydrochloride], the IC50 is greater than 10000 nM.

For the compound `CC(C)(C)CC(=O)NCC1CCN(c2ccnc3nccnc23)CC1` [Compound 399, 3,3-Dimethyl-N-(1-pyrido[2,3-b]pyrazin-8-yl-piperidin-4-ylmethyl)-butyramide], the IC50 is greater than 10000 nM.

For `C[C@H]1C[C@@H](NC(=O)C2CC(F)(F)C2)CN(c2ccc(C(F)F)c3ncccc23)C1` [Compound 317, N-[(3R,5S)-1-[8-(difluoromethyl)quinolin-5-yl]-5-methylpiperidin-3-yl]-3,3-difluorocyclobutane-1-carboxamide], the IC50 is greater than 10000 nM.

Regarding `CC(C)C(C)C(=O)N[C@@H]1C[C@H](C)CN(c2ccnc3nccnc23)C1` (stereo partly drawn) [Compound 168, 2,3-dimethyl-N-[(3R,5S)-5-methyl-1-[pyrido[2,3-b]pyrazin-8-yl]piperidin-3-yl]butanamide], the IC50 was greater than 10000 nM.

For `CC(O)C(=O)N[C@@H]1C[C@H](C)CN(c2ccc(C(F)F)c3ncccc23)C1` (stereo partly drawn) [Compound 302, N-[(3R,5S)-1-[8-(difluoromethyl)quinolin-5-yl]-5-methylpiperidin-3-yl]-2-hydroxypropanamide], the IC50 fell in the range of 1000 to 10000 nM.

Consider `C[C@H]1C[C@@H](NC(=O)CC2CC2(F)F)CN(c2ccc(C(F)(F)F)c3nccnc23)C1` (stereo partly drawn) [Compound 298, 2-(2,2-difluorocyclopropyl)-N-[(3R,5S)-5-methyl-1-[8-(trifluoromethyl)quinoxalin-5-yl]piperidin-3-yl]acetamide], for which the IC50 is less than 1000 nM.

Regarding `C[C@H]1C[C@@H](NC(=O)CC2CC2(F)F)CN(c2ccc(C#N)c3nccnc23)C1` (stereo partly drawn) [Compound 272, N-[(3R,5S)-1-(8-cyanoquinoxalin-5-yl)-5-methylpiperidin-3-yl]-2-(2,2-difluorocyclopropyl)acetamide], the IC50 was less than 1000 nM.

Turning to `C[C@H]1C[C@@H](NC(=O)CC2C3CC2CN(C)C3)CN(c2ccc(C#N)c3nccnc23)C1` (single isomer, unassigned) [Compound 358], the IC50 was less than 1000 nM.
